# Measurements as given in US7871996B2, “Methods of inhibiting nitric oxide synthase using corrin derivatives” (The United States of America as represented by the …, priority 2006, dated 2011).
# Counter-ions that a name gives are not always drawn.
# Experiments:
# NOS1 (nNOS) = molecular target: T1, NOS1 (nNOS) (Homo sapiens, UniProt P29475); assay: NOS1 enzymatic activity: conversion of 14-C-L-arginine to L-citrulline; format: biochemical
# T1 construct: made in house
# Procedure: (§1) The enzymatic activity of purified NOS1, NOS2, or NOS3 to convert radiolabeled L-arginine to L-citrulline was assessed in presence or absence of different concentrations of (A) hydroxocobalamin, (B) cobinamide, (C) dicyanocobinamide, or (D) cyanocobalamin. Results are expressed as percent inhibition.
# (§2) The effect of methylcobalamin (not exposed to light or exposed to light) on nNOS is shown in FIG. 3A; its effect on iNOS is shown in FIG. 3B. The effect of adenosylcobalamin (not exposed to light or exposed to light) on nNOS is shown in FIG. 3C; its effect on iNOS is shown in FIG. 3D. The agents were protected from light or exposed to light for 60 minutes. The enzyme assays were done in near-dark conditions (as low light as possible). Light removes the methyl- or adenosyl-group from the agent resulting in hydroxocobalamin.
# (§3) Briefly, cells were treated with 500 units/ml of murine interferon-gamma for 24 hours, incubated with 10 uM DAF-FM for 30 minutes, and washed. Then the cells were then assessed for fluorescence in a platereader fluorimeter. The degree of NO formation is proportional to the degree of fluorescence of DfAF-FM. To determine NOS activity, we incubated 14-C-labeled-L-arginine was at 37° C. with 5 nM recombinant NOS1, NOS2 or NOS3 with HEPES buffer, dithiothreitol, tetrahydrobiopterin, FAD, and NADPH in the absence or presence of different concentrations of the compound in question for 60 minutes (27, 28). The reaction was stopped by adding excess L-citrulline, after which 14-C-labeled L-arginine was separated from 14-C-labeled citrulline using a Dowex-50 column (with the 14-C-labeled L-arginine being bound to the Dowex-50, and 14-C-labeled citrulline eluting free from the column). Radioactivity was determined with a scintillation counter, and percentage NOS inhibition was calculated. We determined that none of the compounds quenched detection of the radioactivity. Spectroscopy was determined using a Hitachi U2010 spectrometer (San Jose, Calif.) as noted before (17, 24, 25).
# NOS2 (iNOS) = molecular target: T2, NOS2 (iNOS) (Homo sapiens, UniProt P35228); assay: NOS2 enzymatic activity: conversion of 14-C-L-arginine to L-citrulline; format: biochemical
# T2 construct: made in house
# Procedure: as §1, §2, §3
# [1] = stated as known; cited from earlier work
# J774 cells = assay: NO formation by activated J774 mouse macrophage cells; format: cell-based; settings: interferon-gamma and endotoxin, 3 days, 0 to 62.5 uM
# Procedure: (§4) Cells of the mouse macrophage cell line J774 were incubated 3 days with 10 ng/ml endotoxin and 100 units/ml murine interferon gamma to activate the macrophage-like cells for NO production. The cultures also contained 0 to 62.5 uM dicyanocobinamide for the 3 days. At the end of the culture period, supernatant cell NO production was determined. […] Cells of the mouse macrophage cell line Raw 264 were incubated 24 hours with 100 units/ml murine interferon gamma to activate the macrophage-like cells for NO production. The cultures also contained 0, 0.5, 2.0, or 8.0 uM dicyanocobinamide for the entire culture period. At the end of the culture period the cells were assessed for NO production using DAF-MN and a fluorimeter. Results are expressed as percent inhibition. The error bars show the SEM.
# We prepared highly purified, recombinant NOS1 and NOS2 (24,25). Recombinant bovine NOS3 was purchased from Cayman (Ann Arbor, Mich.). Tetrahydrobiopterin and carboxy-PTIO {2-(4-Carboxyphenyl)-4,4,5,5-tetramethylimidazoline-1-oxyl-3-oxide (potassium salt)} were from Alexis (San Diego, Calif.). 14-C-labeled L-arginine and 14-C-labeled citrulline were from Amersham/GE Healthcare (Waukesha, Wis.). […] NO levels were measured using a “Nitric Oxide Analyzer” (Sievers, Boulder, Colo.) or using diaminofluorescein-FM (4-amino-5-methylamino-2′,7′-difluorofluorescein) from Invitrogen-Molecular Probes.
# [2] = molecular target: T3, purified, recombinant NOS2 (Homo sapiens, UniProt P35228); assay: UV/Vis spectroscopy of CO binding to reduced NOS2 heme; settings: reduced conditions (dithionite), CO as oxygen mimic
# T3 construct: made in house
# T3 sequence (P35228 whole entry): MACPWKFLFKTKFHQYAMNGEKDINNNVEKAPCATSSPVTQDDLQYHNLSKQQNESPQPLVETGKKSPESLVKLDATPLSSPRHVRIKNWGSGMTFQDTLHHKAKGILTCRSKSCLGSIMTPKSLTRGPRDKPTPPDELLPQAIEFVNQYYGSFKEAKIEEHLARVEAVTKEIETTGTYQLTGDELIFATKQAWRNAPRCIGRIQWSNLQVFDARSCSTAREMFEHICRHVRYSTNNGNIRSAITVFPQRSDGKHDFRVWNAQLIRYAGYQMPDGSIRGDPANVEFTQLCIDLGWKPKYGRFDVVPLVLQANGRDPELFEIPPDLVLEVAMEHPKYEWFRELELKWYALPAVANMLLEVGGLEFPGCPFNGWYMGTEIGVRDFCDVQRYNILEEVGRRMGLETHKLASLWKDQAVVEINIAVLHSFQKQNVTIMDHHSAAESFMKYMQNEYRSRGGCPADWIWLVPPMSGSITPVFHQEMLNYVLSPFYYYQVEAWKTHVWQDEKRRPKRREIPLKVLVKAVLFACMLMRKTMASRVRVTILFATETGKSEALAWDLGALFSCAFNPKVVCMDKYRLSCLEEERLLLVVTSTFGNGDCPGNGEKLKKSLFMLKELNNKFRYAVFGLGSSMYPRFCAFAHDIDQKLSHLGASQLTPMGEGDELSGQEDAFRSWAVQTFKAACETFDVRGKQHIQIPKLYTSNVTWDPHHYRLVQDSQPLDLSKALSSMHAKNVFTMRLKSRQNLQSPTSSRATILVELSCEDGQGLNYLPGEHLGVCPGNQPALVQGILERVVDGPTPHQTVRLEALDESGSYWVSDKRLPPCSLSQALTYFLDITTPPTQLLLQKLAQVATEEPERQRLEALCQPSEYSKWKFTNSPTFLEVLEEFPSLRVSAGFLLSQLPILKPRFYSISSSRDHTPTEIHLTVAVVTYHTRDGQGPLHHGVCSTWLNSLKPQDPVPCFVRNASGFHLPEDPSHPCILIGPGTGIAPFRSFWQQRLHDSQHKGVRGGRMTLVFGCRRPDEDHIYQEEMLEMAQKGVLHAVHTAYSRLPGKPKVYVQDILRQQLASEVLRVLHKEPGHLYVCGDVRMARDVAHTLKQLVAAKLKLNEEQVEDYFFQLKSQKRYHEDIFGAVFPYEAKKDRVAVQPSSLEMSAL
# From the text: Oxygen reacts directly with the reduced iron of the heme group in NOS. Carbon monoxide (CO) (that simulates O2 in binding to the reduced iron) was used to determine the influence of CN2-Cbi on oxygen binding to NOS. The reaction of purified NOS2 with CO in a reduced state (dithionite) markedly changed the UV/Vis spectrum, with appearance of the typical CO-bound Fe^+2-heme peak at 445 nm (FIG. 4A). However, in the presence of CN2-Cbi, there was no appearance of the 445 nm peak induced by CO in a reduced state (FIG. 4B).
# Briefly, cells were treated with 500 units/ml of murine interferon-gamma for 24 hours, incubated with 10 uM DAF-FM for 30 minutes, and washed. Then the cells were then assessed for fluorescence in a platereader fluorimeter. The degree of NO formation is proportional to the degree of fluorescence of DfAF-FM. […] Radioactivity was determined with a scintillation counter, and percentage NOS inhibition was calculated. We determined that none of the compounds quenched detection of the radioactivity. Spectroscopy was determined using a Hitachi U2010 spectrometer (San Jose, Calif.) as noted before (17, 24, 25). […]
# [3] = UV/Vis spectroscopy of reaction of agent with NO; format: binding
# Procedure: NO reacts with OH-Cbl as indicated by the change in the UV/Vis spectrum (shift of peak from 352 nm to 354-355 nm, and alteration in the 520 nm region).
# as §3, with “25). […]” for “25).”
# Raw 264 cells = assay: NO formation by activated Raw 264 mouse macrophage cells (DAF-FM fluorescence); format: cell-based; settings: interferon-gamma, 24 hours, 0, 0.5, 2.0, or 8.0 uM
# Procedure: as §4
# We prepared highly purified, recombinant NOS1 and NOS2 (24,25). […] NO levels were measured using a “Nitric Oxide Analyzer” (Sievers, Boulder, Colo.) or using diaminofluorescein-FM (4-amino-5-methylamino-2′,7′-difluorofluorescein) from Invitrogen-Molecular Probes.
# Briefly, cells were treated with 500 units/ml of murine interferon-gamma for 24 hours, incubated with 10 uM DAF-FM for 30 minutes, and washed. Then the cells were then assessed for fluorescence in a platereader fluorimeter. The degree of NO formation is proportional to the degree of fluorescence of DfAF-FM. […]
# [4] = after light illumination of the agent
compound,measurement,setting,value
C/C1=C2/[N-][C@H]([C@H](CC(N)=O)[C@@]2(C)CCC(=O)NC[C@@H](C)OP(=O)([O-])O[C@H]2[C@@H](O)[C@@H](n3cnc4cc(C)c(C)cc43)O[C@@H]2CO)[C@]2(C)N=C(/C(C)=C3N=C(/C=C4N=C1[C@@H](CCC(N)=O)C\4(C)C)[C@@H](CCC(N)=O)[C@]\3(C)CC(N)=O)[C@@H](CCC(N)=O)[C@]2(C)CC(N)=O.[CH2-][C@H]1O[C@@H](n2cnc3c(N)ncnc32)[C@H](O)[C@@H]1O.[Co] [Adenosylcobalamin],NOS1 inhibition (in words),NOS1 (nNOS); [4],inhibitory activity (comparable to native OH-Cbl)
same,NOS1 inhibition (in words),NOS1 (nNOS); agent not exposed to light,very little ability to inhibit NOS activity
same,NOS2 inhibition (in words),NOS2 (iNOS); [4],inhibitory activity (comparable to native OH-Cbl)
same,NOS2 inhibition (in words),NOS2 (iNOS); agent not exposed to light,very little ability to inhibit NOS activity
"CC1(C)N([O])C(c2ccc(C(=O)O)cc2)=[N+]([O-])C1(C)C [Carboxy-PTIO, 2-(4-Carboxyphenyl)-4,4,5,5-tetramethylimidazoline-1-oxyl-3-oxide (potassium salt)]",NOS1 inhibition (in words),NOS1 (nNOS); purified recombinant NOS1,does not inhibit NOS
same,EC50,"NOS1 (nNOS); purified recombinant NOS1, 5 nM, 60 minutes, 37° C., read-out: ED50 NOS1",1360 µM
same,NOS2 inhibition (in words),NOS2 (iNOS); purified recombinant NOS2,does not inhibit NOS
same,EC50,"NOS2 (iNOS); purified recombinant NOS2, 5 nM, 60 minutes, 37° C., read-out: ED50 NOS2",1360 µM
C/C1=C2/[N-][C@H]([C@H](CC(N)=O)[C@@]2(C)CCC(=O)NC[C@@H](C)O)[C@]2(C)N=C(/C(C)=C3N=C(/C=C4N=C1[C@@H](CCC(N)=O)C\4(C)C)[C@@H](CCC(N)=O)[C@]\3(C)CC(N)=O)[C@@H](CCC(N)=O)[C@]2(C)CC(N)=O.[Co+3] [Cobinamide],NOS1 inhibition (in words),NOS1 (nNOS); purified recombinant NOS1,potent
same,NOS2 inhibition (in words),NOS2 (iNOS); purified recombinant NOS2,potent
same,ability to bind and scavenge NO,[1],able to bind and scavenge NO
C/C1=C2/[N-]C([C@H](CC(N)=O)[C@@]2(C)CCC(=O)NCC(C)O)[C@]2(C)N=C(/C(C)=C3N=C(/C=C4N=C1[C@@H](CCC(N)=O)C\4(C)C)[C@@H](CCC(N)=O)[C@]\3(C)CC(N)=O)[C@@H](CCC(N)=O)[C@]2(C)CC(N)=O.[C-]#N.[C-]#N.[Co] (stereo partly drawn) [Dicyanocobinamide],NOS1 inhibition (in words),NOS1 (nNOS); purified recombinant NOS1,potent
same,inhibition of NO production,J774 cells,dose-dependent inhibition
same,NOS2 inhibition (in words),NOS2 (iNOS); purified recombinant NOS2,potent
same,CO-induced spectral changes in NOS2 (445 nm peak),[2],markedly diminished
same,reaction with NO (change in UV/visible spectrum),[3],did not react
same,inhibition of NO production,Raw 264 cells,dose-dependent inhibition
C/C1=C2/[N-][C@H]([C@H](CC(N)=O)[C@@]2(C)CCC(=O)NC[C@@H](C)OP(=O)([O-])O[C@H]2[C@@H](O)[C@@H](n3cnc4cc(C)c(C)cc43)O[C@@H]2CO)[C@]2(C)N=C(/C(C)=C3N=C(/C=C4N=C1[C@@H](CCC(N)=O)C\4(C)C)[C@@H](CCC(N)=O)[C@]\3(C)CC(N)=O)[C@@H](CCC(N)=O)[C@]2(C)CC(N)=O.[Co+3].[OH-] [Hydroxocobalamin],NOS1 inhibition (in words),NOS1 (nNOS); purified recombinant NOS1,potent
same,NOS2 inhibition (in words),NOS2 (iNOS); purified recombinant NOS2,potent
same,reaction with NO (change in UV/visible spectrum),[3],reacted
same,ability to bind and scavenge NO,[1],able to bind and scavenge NO
C/C1=C2/[N-][C@H]([C@H](CC(N)=O)[C@@]2(C)CCC(=O)NC[C@H](C)OP(=O)([O-])O[C@H]2[C@@H](O)[C@@H](n3cnc4cc(C)c(C)cc43)O[C@@H]2CO)[C@]2(C)N=C(/C(C)=C3N=C(/C=C4N=C1[C@@H](CCC(N)=O)C\4(C)C)[C@@H](CCC(N)=O)[C@]\3(C)CC(N)=O)[C@@H](CCC(N)=O)[C@]2(C)CC(N)=O.[CH3-].[Co+3] [Methylcobalamin],NOS1 inhibition (in words),NOS1 (nNOS); [4],inhibitory activity (comparable to native OH-Cbl)
same,NOS1 inhibition (in words),NOS1 (nNOS); agent not exposed to light,very little ability to inhibit NOS activity
same,NOS2 inhibition (in words),NOS2 (iNOS); [4],inhibitory activity (comparable to native OH-Cbl)
same,NOS2 inhibition (in words),NOS2 (iNOS); agent not exposed to light,very little ability to inhibit NOS activity
Cyanocobalamin,NOS1 inhibition (in words),NOS1 (nNOS); purified recombinant NOS1,much less activity
same,NOS2 inhibition (in words),NOS2 (iNOS); purified recombinant NOS2,much less activity
